From patent US20220315895A1, “METHODS OF MAKING OLIGOPOTENT AND UNIPOTENT PRECURSORS” (Transfusion Health, LLC, priority 2019, published 2022)

Columns and labels:
[1] = system: CD34+ cells from mobilized peripheral blood; assay: Long-term expansion of HSCs, mobilized peripheral blood (Example 36); assay type: cell-based, human; conditions: Compound 1.010 8 μM, up to 21 days, from day 1
Experimental: CD34+ cells from mobilized peripheral blood were purchased from STEMCELL Technologies. The blood from volunteer donors was mobilized using G-CSF. Volunteers were administered a maximum of 10 μg/kg/day of granulocyte colony-stimulating factor (G-CSF) for 3-5 days prior to collection. Primary human CD34+ cells were isolated from mobilized peripheral blood leukapheresis samples using positive immunomagnetic separation techniques.
Cryopreserved CD34+ cell samples from each source were thawed and gradually brought to room temperature. Samples were washed then placed in overnight culture in StemSpan with 100 ng/ml each of FLT3L, TPO, SCF, and TL-6.
Cultures were incubated at 3% oxygen (controlled by nitrogen) and 5% CO2.
Twenty-four hours later (day 1), cells were counted and immunophenotyped (flow cytometry on an Invitrogen Attune N×T cytometer). The media components and concentrations used for the compounds tested are described in Table 7. Culture conditions also included an antibiotic solution that includes penicillin, streptomycin, and amphotericin B to avoid contamination. Approximately 1000 cells were added to each of the cord blood and mobilized peripheral blood flasks (5 ml total volume) or wells of a 96-well plate (200 μl total volume). Approximately 2000 cells were added to each of the non-mobilized peripheral blood flasks (5 ml total volume) or wells of a 96-well plate (200 μl total volume). Exact cell numbers dispensed per condition were quantified for later calculations of fold change from day 1.
Wells were analyzed at days 7 and 10, flasks were analyzed at 14 and 21 days of incubation. Cell numbers and phenotypes were quantified with flow cytometry. At day 14, fresh conditions for flasks were prepared as on day 1, and cells were split 1:20 into the new flasks. An additional seven days later (day 21 of culture), cell numbers and phenotypes were again quantified with flow cytometry. Cell numbers calculated at day 21 account for the passaging of the cells.
Conditions in 96-well plates were prepared in quadruplicate; conditions in flasks were prepared in duplicate. On the above-indicated number of days in culture, cells from wells or flasks were collected and phenotypes were analyzed (flow cytometry on an Invitrogen Attune N×T cytometer).

[2] = system: CD34+ cells from cord blood; assay: HSC Expansion Culture, 21 and 63 days (Example 38); assay type: cell-based, human; conditions: +Formula I Condition (Compound 1.010 8 μM)
Experimental: CD34+ cells from cord blood were purchased from STEMCELL Technologies. Primary human CD34+ cells were isolated by the supplier from cord blood samples using positive immunomagnetic separation techniques. Cells were thawed, gradually brought to room temperature, then washed.
Cells were placed in overnight culture in StemSpan with 100 ng/ml each of FLT3L, TPO, SCF, and IL-6. Eighteen hours later (day 1), cells were counted and immunophenotyped (flow cytometry on an Invitrogen Attune N×T cytometer).
A portion of these cells were washed and placed directly into various “Differentiation Cultures,” described below. The remainder of cells were placed into “HSC Expansion Culture,” described here. Approximately 1000 live cells were plated into duplicate 25 cm^2 flasks; exact cell numbers dispensed per flask were quantified with flow cytometry for later calculations. […]
Following 21 and 63 days in Expansion Culture, prior to passaging or CD34 re-enrichment, a sample was taken from each flask for analysis of phenotypes (flow cytometry on an Invitrogen Attune N×T cytometer). Cell numbers calculated for these analyses take into account passaging of cells on prior days. Fold expansion of CD34+ cells was calculated by dividing the cell numbers at later days (21 and 63) by the number of CD34+ cells quantified at day 1.

`CC(C)(C)C(=O)Nc1ccc2c(c1)C(O)c1ccccc1-2` (stereo not shown) [Compound 1.010] was tested, and the “fold expansion of CD34+ cells” value [1] was “greater than 20 fold”, the “fold expansion of CD34+/CD133+ cells” value [1] was “greater than 40 fold” and the “fold expansion of CD34+/CD133+/CD90+ cells” value [1] was “greater than 60 fold”. The “fold expansion of CD34+/CD133+/CD90+/CD38low/− cells” value [1] was “greater than 60 fold”, the “fold expansion of CD34+/CD133+/CD90+/CD45RA− cells” value [1] was “greater than 30 fold” and the “fold expansion of CD34+ cells” value ([2]; 21 days) was 600 fold. For the same compound, the “fold expansion of CD34+ cells” value ([2]; 63 days) was 244,000 fold.
